Measurements as given in patent US9758561B2 (priority 2014, dated 2017).
In brackets after ≈: the same amount, converted by molar mass. Like-named read-outs stand apart in the source and are kept apart here.

What was measured:
[1] = Pharmacokinetic testing in mice, 1 mg/kg s.c. (LC/MS); type: in vivo; settings: mouse, plasma, sc
Experimental: Mice were dosed 1 mg/kg subcutaneously (s.c.). The mice were sacrificed and blood samples were collected after 0.25, 0.5, 1, 2, 4, 8, 16 and 24 hours post application. Plasma samples were analyzed after protein precipitation via liquid chromatography mass spectrometry (LC/MS). PK parameters and half-life were calculated using WinonLin Version 5.2.1 (non-compartment model).

human glucagon receptor = target: T1, human glucagon receptor (Homo sapiens, UniProt P47871); test: cAMP response of HEK-293 cells stably expressing human glucagon receptor (HTRF); type: cell-based; settings: Table 6; read-out: EC50 hGlucagon-R
T1 construct: expressed in transfected cells; host or cells: HEK-293
T1 sequence (P47871 26-477): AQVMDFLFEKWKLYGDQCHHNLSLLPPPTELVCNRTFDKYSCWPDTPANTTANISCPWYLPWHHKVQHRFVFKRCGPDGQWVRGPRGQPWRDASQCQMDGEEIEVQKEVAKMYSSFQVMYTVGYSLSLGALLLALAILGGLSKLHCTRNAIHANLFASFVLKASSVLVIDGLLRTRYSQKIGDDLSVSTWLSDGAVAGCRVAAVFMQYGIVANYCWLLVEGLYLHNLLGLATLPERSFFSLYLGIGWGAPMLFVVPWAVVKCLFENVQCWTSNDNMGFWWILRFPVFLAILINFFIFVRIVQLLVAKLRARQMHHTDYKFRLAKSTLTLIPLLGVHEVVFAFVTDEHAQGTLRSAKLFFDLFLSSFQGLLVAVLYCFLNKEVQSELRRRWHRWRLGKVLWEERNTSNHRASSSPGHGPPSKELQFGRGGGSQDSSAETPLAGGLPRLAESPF
Experimental: (§1) For preparation, cells were split into T175 culture flasks and grown overnight to near confluency in medium (DMEM/10% FBS). Medium was then removed and cells washed with PBS lacking calcium and magnesium, followed by proteinase treatment with accutase (Sigma-Aldrich cat. no. A6964). Detached cells were washed and resuspended in assay buffer (1×HBSS; 20 mM HEPES, 0.1% BSA, 2 mM IBMX) and cellular density determined. They were then diluted to 400000 cells/ml and 25 μl-aliquots dispensed into the wells of 96-well plates. For measurement, 25 μl of test compound in assay buffer was added to the wells, followed by incubation for 30 minutes at room temperature. […] Potencies of peptidic compounds at the GLP-1, glucagon and GIP receptors were determined by exposing cells expressing human glucagon receptor (hGlucagon R), human GIP receptor (hGIP-R) or human GLP-1 receptor (hGLP-1R) to the listed compounds at increasing concentrations and measuring the formed cAMP as described in Methods.

[2] = Stability testing in solution, 7 days at 40° C. (HPLC-UV); type: physicochemical; settings: for Stability pH 4.5: pH 4.5, 7 days at 40° C. in solution; for Stability pH 7.4: pH 7.4, 7 days at 40° C. in solution
Experimental: After that time course, the sample was centrifuged for 20 min at 4500 rpm and 0.2 μL of the supernatant were analysed with HPLC-UV.
For determination of the amount of the remaining peptide, the peak areas of the target compound at t0 and t7 were compared, resulting in “% remaining peptide”, following the equation % remaining peptide=[(peak area peptide t7)×100]/peak area peptide t0.
The stability is expressed as “% remaining peptide”.

[3] = tested on: female diet-induced obese (DIO) C57BL/6 mice; test: Acute effect on blood glucose in fed female DIO C57BL/6 mice; type: in vivo; settings: 50 μg/kg s.c., profile over 24 h
Experimental: (§2) C57BL/6 Harlan mice are housed in groups in a specific pathogen-free barrier facility on a 12 h light/dark cycle with free access to water and standard or high-fat diet. After prefeeding on high-fat diet, mice are stratified to treatment groups (n=8), so that each group has similar mean body weight. An age-matched group with ad-libitum access to standard chow is included as standard control group. Before the experiment, mice are subcutaneously (s.c.) injected with vehicle solution and weighed for 3 days to acclimate them to the procedures.
The volume of administration is 5 mL/kg. The animals have access to water and their corresponding diet during the experiment. Blood glucose levels are measured at t=0 h, t=1 h, t=2 h, t=3 h, t=4 h, t=6 h and t=24 h (method: Accu-Check glucometer). Blood sampling is performed by tail incision without anaesthesia.
Statistical analyses are performed with Everstat 6.0 by repeated measures two-way ANOVA and Dunnetts post-hoc analyses (glucose profile) and 1-way-ANOVA, followed by Dunnetts post-hoc test (body weight, body fat). Differences versus vehicle-treated DIO control mice are considered statistically significant at the p<0.05 level. […]

human GLP-1 receptor = target: T2, human GLP-1 receptor (Homo sapiens, UniProt P43220); test: cAMP response of HEK-293 cells stably expressing human GLP-1 receptor (HTRF); type: cell-based; settings: Table 6; read-out: EC50 hGLP-1R
T2 construct: expressed in transfected cells; host or cells: HEK-293
T2 sequence (P43220 24-463): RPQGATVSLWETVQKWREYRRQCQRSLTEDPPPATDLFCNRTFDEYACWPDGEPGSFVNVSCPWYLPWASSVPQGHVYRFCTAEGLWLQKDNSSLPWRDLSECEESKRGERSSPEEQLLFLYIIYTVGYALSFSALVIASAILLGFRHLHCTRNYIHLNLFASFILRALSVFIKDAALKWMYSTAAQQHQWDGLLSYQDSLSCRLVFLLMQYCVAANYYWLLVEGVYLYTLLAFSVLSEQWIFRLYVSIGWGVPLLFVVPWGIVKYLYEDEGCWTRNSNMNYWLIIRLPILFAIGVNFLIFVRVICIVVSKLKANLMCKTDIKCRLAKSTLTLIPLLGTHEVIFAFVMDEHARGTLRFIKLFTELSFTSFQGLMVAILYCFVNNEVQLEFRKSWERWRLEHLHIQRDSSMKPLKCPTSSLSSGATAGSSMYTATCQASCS
Method in brief: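 HEK-293 cells stably expressing the receptor were taken up in HBSS/20 mM HEPES/0.1% BSA with 2 mM IBMX at 400000 cells/ml. They were exposed to increasing concentrations of peptide for 30 minutes at room temperature, and formed cAMP was measured by HTRF.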

[4] = tested on: female diet-induced obese (DIO) C57BL/6 mice; test: Chronic effect on body weight and body fat in female DIO C57BL/6 mice; type: in vivo; settings: 50 μg/kg bid s.c., 4 weeks; for Body fat change: NMR; for Body fat change / Overall weight change: mean ± SEM
Experimental: as §2
Body weight is recorded daily. Two days before start of treatment and on day 26, total fat mass is measured by nuclear magnetic resonance (NMR).
Statistical analyses are performed with Everstat 6.0 by repeated measures two-way ANOVA and Dunnetts post-hoc analyses (glucose profile) and 1-way-ANOVA, followed by Dunnetts post-hoc test (body weight, body fat). Differences versus vehicle-treated DIO control mice are considered statistically significant at the p<0.05 level.
Female obese C57BL/6 mice were treated for 4 weeks twice daily subcutaneously with 50 μg/kg SEQ ID NO: 6, 50 μg/kg SEQ ID NO: 7 or vehicle. Body weight was recorded daily, and body fat content was determined before the start and after 4 weeks of treatment. […] These changes resulted from a decrease in body fat, as shown by the absolute changes in body fat content (Table 10, FIG. 3).
Female obese C57BL/6 mice were treated for 4 weeks twice daily subcutaneously with 50 μg/kg SEQ ID NO: 9 or vehicle. Body weight was recorded daily, and body fat content was determined before the start and after 4 weeks of treatment.

human GIP receptor = target: T3, human GIP receptor (Homo sapiens, UniProt P48546); test: cAMP response of HEK-293 cells stably expressing human GIP receptor (HTRF); type: cell-based; settings: Table 6; read-out: EC50 hGIP-R
T3 construct: expressed in transfected cells; host or cells: HEK-293
T3 sequence (P48546 22-466): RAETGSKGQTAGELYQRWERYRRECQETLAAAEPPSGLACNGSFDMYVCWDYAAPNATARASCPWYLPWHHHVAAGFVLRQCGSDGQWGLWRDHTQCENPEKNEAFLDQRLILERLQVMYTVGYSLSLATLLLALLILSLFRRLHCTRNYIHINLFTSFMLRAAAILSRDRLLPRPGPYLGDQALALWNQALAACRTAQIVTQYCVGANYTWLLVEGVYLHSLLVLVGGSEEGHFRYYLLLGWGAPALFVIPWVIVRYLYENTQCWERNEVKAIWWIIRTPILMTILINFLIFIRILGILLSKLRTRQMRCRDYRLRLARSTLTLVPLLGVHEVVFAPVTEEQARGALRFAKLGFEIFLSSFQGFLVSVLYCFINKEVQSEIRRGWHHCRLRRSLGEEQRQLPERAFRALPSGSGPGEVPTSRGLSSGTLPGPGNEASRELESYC
Experimental: as §1

[5] = Solubility testing in buffer (HPLC-UV); type: physicochemical
[6] = pH 4.5, target concentration 10 mg/ml, read-out: solubility pH 4.5
[7] = pH 7.4, target concentration 10 mg/ml, read-out: solubility pH 7.4

Compound | Cmax [1] | half-life [1] | EC50 (human glucagon receptor) | Stability pH 4.5 [2] | Stability pH 7.4 [2] | blood glucose compared to DIO control [3] | EC50 (human GLP-1 receptor) | daily body weight compared to vehicle DIO control mice [4] | Body fat change ([4]; Table 11 (Example 8)) | Overall weight change ([4]; Table 11 (Example 8)) | EC50 (human GIP receptor) | solubility at 2 h [5, 6] | solubility at 2 h [5, 7] | Body fat change ([4]; Table 10 (Example 7)) | Overall weight change ([4]; Table 10 (Example 7))
CCCCCCCCCCCCCCCC(=O)N[C@@H](CCC(=O)N[C@@H](CCC(=O)NCCCC[C@H](NC(=O)[C@H](CCC(N)=O)NC(=O)[C@H](CCCCN)NC(=O)[C@H](CO)NC(=O)[C@H](CC(C)C)NC(=O)[C@H](CC(=O)O)NC(=O)[C@H](CO)NC(=O)[C@@H](NC(=O)[C@H](Cc1ccccc1)NC(=O)[C@@H](NC(=O)CNC(=O)[C@H](CCC(N)=O)NC(=O)[C@@H](CO)NC(=O)[C@@H](N)Cc1c[nH]cn1)[C@@H](C)O)[C@@H](C)O)C(=O)N[C@@H](CC(=O)O)C(=O)N[C@@H](CCC(=O)O)C(=O)N[C@@H](CCC(=O)O)C(=O)N[C@@H](C)C(=O)N[C@@H](C)C(=O)N[C@@H](CCCNC(=N)N)C(=O)N[C@@H](CC(C)C)C(=O)N[C@@H](Cc1ccccc1)C(=O)N[C@H](C(=O)N[C@@H](CCC(=O)O)C(=O)N[C@@H](Cc1c[nH]c2ccccc12)C(=O)N[C@@H](CC(C)C)C(=O)NC(C)(C)C(=O)N[C@@H](C)C(=O)NCC(=O)NCC(=O)N1CCC[C@H]1C(=O)N[C@@H](CO)C(=O)N[C@@H](CO)C(=O)NCC(=O)N[C@@H](C)C(=O)N1CCC[C@H]1C(=O)N1CCC[C@H]1C(=O)N1CCC[C@H]1C(=O)N[C@@H](CO)C(N)=O)[C@@H](C)CC)C(=O)O)C(=O)O [SEQ ID NO: 9, H-dSer-Q-G-T-F-T-S-D-L-S-K-Q-K(γE-γE-x53)-D-E-E-A-A-R-L-F-I-E-W-L-Aib-A-G-G-P-S-S-G-A-P-P-P-S-NH2] | 6560 ng/mL | 3.8 h | 0.0118 nM | 77.0 % remaining peptide | 93.0 % remaining peptide | decrease in blood glucose | 0.0018 nM | decrease in daily body weight | -5.65 ± 0.9 g | -6.56 ± 1.0 g | 3.6 nM | 2200 µg/mL (≈ 480 µM) | > 8000 µg/mL | – | –
CCCCCCCCCCCCCCCC(=O)N[C@@H](CCC(=O)N[C@@H](CCC(=O)NCCCC[C@H](NC(=O)[C@H](CCC(N)=O)NC(=O)[C@H](CCCCN)NC(=O)[C@H](CO)NC(=O)[C@H](CC(C)C)NC(=O)[C@H](CC(=O)O)NC(=O)[C@H](CO)NC(=O)[C@@H](NC(=O)[C@H](Cc1ccccc1)NC(=O)[C@@H](NC(=O)CNC(=O)[C@H](Cc1c[nH]cn1)NC(=O)[C@@H](CO)NC(=O)[C@@H](N)Cc1c[nH]cn1)[C@@H](C)O)[C@@H](C)O)C(=O)N[C@@H](CC(=O)O)C(=O)N[C@@H](CCC(=O)O)C(=O)N[C@@H](CCC(=O)O)C(=O)N[C@@H](C)C(=O)N[C@@H](C)C(=O)N[C@@H](CCCNC(=N)N)C(=O)N[C@@H](CC(C)C)C(=O)N[C@@H](Cc1ccccc1)C(=O)N[C@H](C(=O)N[C@@H](CCC(=O)O)C(=O)N[C@@H](Cc1c[nH]c2ccccc12)C(=O)N[C@@H](CC(C)C)C(=O)NC(C)(C)C(=O)N[C@@H](C)C(=O)NCC(=O)NCC(=O)N1CCC[C@H]1C(=O)N[C@@H](CO)C(=O)N[C@@H](CO)C(=O)NCC(=O)N[C@@H](C)C(=O)N1CCC[C@H]1C(=O)N1CCC[C@H]1C(=O)N1CCC[C@H]1C(=O)N[C@@H](CO)C(N)=O)[C@@H](C)CC)C(=O)O)C(=O)O [SEQ ID NO: 7, H-dSer-H-G-T-F-T-S-D-L-S-K-Q-K(γE-γE-x53)-D-E-E-A-A-R-L-F-I-E-W-L-Aib-A-G-G-P-S-S-G-A-P-P-P-S-NH2] | – | – | 0.009 nM | 100.0 % remaining peptide | 90.0 % remaining peptide | – | 0.0015 nM | decrease in daily body weight | – | – | 0.908 nM | 2200 µg/mL (≈ 479 µM) | > 8000 µg/mL | -5.12 ± 0.6 g | -7.25 ± 0.7 g
